Reference: patent publication US11439641B2, “Pyrimidine JAK inhibitors for the treatment of skin diseases” (THERAVANCE BIOPHARMA R&D IP, LLC, priority 2019, dated 2022)

Legend:
[1] = Aqueous Solubility Assay; conditions: PBS buffer pH 7.4; maximum upper limit 1,000 μM
[2] = target: JAK3 (Homo sapiens (Human), UniProt P52333); experiment: Biochemical JAK and Tyk2 Kinase Assays (LanthaScreen), JAK3; conditions: 1.6 μM ATP (Km); pIC50 converted to pKi by Cheng-Prusoff
Experimental: (§1) Assay 1: Biochemical JAK and Tyk2 Kinase Assays
(§2) A panel of four LanthaScreen JAK biochemical assays (JAK1, 2, 3 and Tyk2) were carried in a common kinase reaction buffer (50 mM HEPES, pH 7.5, 0.01% Brij-35, 10 mM MgCl2, and 1 mM EGTA). Recombinant GST-tagged JAK enzymes and a GFP-tagged STAT1 peptide substrate were obtained from Life Technologies.
(§3) Serially or discretely diluted compounds were pre-incubated with each of the four JAK enzymes and the substrate in white 384-well microplates (Corning) at ambient temperature for 1 h. ATP was subsequently added to initiate the kinase reactions in 10 μL total volume, with 1% DMSO. The final enzyme concentrations for JAK1, 2, 3 and Tyk2 are 4.2 nM, 0.1 nM, 1 nM, and 0.25 nM respectively; the corresponding Km ATP concentrations used are 25 μM, 3 μM, 1.6 μM, and 10 μM; while the substrate concentration is 200 nM for all four assays. Kinase reactions were allowed to proceed for 1 hour at ambient temperature before a 10 μL preparation of EDTA (10 mM final concentration) and Tb-anti-pSTAT1 (pTyr701) antibody (Life Technologies, 2 nM final concentration) in TR-FRET dilution buffer (Life Technologies) was added. The plates were allowed to incubate at ambient temperature for 1 h before being read on the EnVision reader (Perkin Elmer). Emission ratio signals (520 nm/495 nm) were recorded and utilized to calculate the percent inhibition values based on DMSO and background controls.
(§4) For dose-response analysis, percent inhibition data were plotted vs. compound concentrations, and IC50 values were determined from a 4-parameter robust fit model with the Prism software (GraphPad Software). Results were expressed as pIC50 (negative logarithm of IC50) and subsequently converted to pKi (negative logarithm of dissociation constant, Ki) using the Cheng-Prusoff equation.

[3] = Solubility Assay in Organic Excipients; conditions: maximum upper limit 20,000 μM; for Solubility in MCT (mg/mL): medium chain triglycerides (MCT)
Experimental: Assay 6: Solubility Assay in Organic Excipients
The purpose of this assay was to quantify the solubility of test compounds in different organic excipients such as diisopropyl adipate, medium chain triglycerides (MCT), propylene glycol, and polyethylene glycol. The assay required 80 μL of 100 mM DMSO test compound solution per desired excipient in addition to 40 μL required to make a test standard.
The standard was created by diluting 40 μL of 100 mM DMSO compound stock solution into 160 μL of methanol and was shaken for five minutes to ensure solution uniformity. […] This 20,000 μM solution was run on an Agilent 1260 LC-MS system by injecting 0.2 μL in order to obtain the peak area. For the test solutions, 80 μL of 100 mM DMSO compound stock solution, per excipient, were dried down into a powder overnight. Once in powder form, 400 μL of the desired excipient was added to the powder and allowed to shake vigorously for four hours. The maximum theoretical concentration for this sample solution was 20,000 μM. After four hours of shaking, the samples were centrifuged for 10 minutes at 3,000 RPM before injecting 0.2 μL on the same Agilent 1260 LC-MS system to obtain the peak area.

[4] = target: JAK1 (Homo sapiens (Human), UniProt P23458); experiment: Biochemical JAK and Tyk2 Kinase Assays (LanthaScreen), JAK1; conditions: 25 μM ATP (Km); pIC50 converted to pKi by Cheng-Prusoff
Experimental: as §1, §2, §3, §4

[5] = system: IL-2 stimulated pSTAT5 in Tall-1 T cells; experiment: Inhibition of IL-2 Stimulated pSTAT5 in Tall-1 T Cells; format: cell-based; conditions: Tall-1 human T cell line, IL-2 300 ng/mL, AlphaLisa
Experimental: Assay 2: Inhibition of IL-2 Stimulated pSTAT5 in Tall-1 T Cells
The potency of test compounds for inhibition of interleukin-2 (IL-2) stimulated STATS phosphorylation was measured in the Tall-1 human T cell line (DSMZ) using AlphaLisa. Because IL-2 signals through JAK1/3, this assay provides a measure of JAK1/3 cellular potency.
Phosphorylated STATS was measured via the AlphaLISA SureFire Ultra pSTAT5 (Tyr694/699) kit (PerkinElmer). Human T cells from the Tall-1 cell line were cultured in a 37° C., 5% CO2 humidified incubator in RPMI (Life Technologies) supplemented with 15% Heat Inactivated Fetal Bovine Serum (FBS, Life Technologies), 2 mM Glutamax (Life Technologies), 25 mM HEPES (Life Technologies) and 1× Pen/Strep (Life Technologies). Compounds were serially diluted in DMSO and dispensed acoustically to empty wells. Assay media (phenol red-free DMEM (Life Technologies) supplemented with 10% FBS (ATCC)) was dispensed (4 μL/well) and plates shaken at 900 rpm for 10 mins. Cells were seeded at 45,000 cells/well in assay media (4 μL/well), and incubated at 37° C., 5% CO2 for 1 hour, followed by the addition of IL-2 (R&D Systems; final concentration 300 ng/mL) in pre-warmed assay media (4 μL) for 30 minutes. After cytokine stimulation, cells were lysed with 6 ul of 3× AlphaLisa Lysis Buffer (PerkinElmer) containing 1× PhosStop and Complete tablets (Roche). The lysate was shaken at 900 rpm for 10 minutes at room temperature (RT). Phosphorylated STATS was measured via the pSTAT5 AlphaLisa kit (PerkinElmer). Freshly prepared acceptor bead mixture was dispensed onto lysate (51) under green filtered <100 lux light. Plates were shaken at 900 rpm for 2 mins, briefly spun down, and incubated for 2 hrs at RT in the dark. Donor beads were dispensed (5 μL) under green filtered <100 lux light. Plates were shaken at 900 rpm for 2 minutes, briefly spun down, and incubated overnight at RT in the dark. Luminescence was measured with excitation at 689 nm and emission at 570 nm using an EnVision plate r reader (PerkinElmer) under green filtered <100 lux light.
To determine the inhibitory potency of test compounds in response to IL-2, the average emission intensity of beads bound to pSTAT5 was measured in a human T cell line. IC50 values were determined from analysis of the inhibition curves of signal intensity versus compound concentration. Data are expressed as pIC50 (negative decadic logarithm IC50) values (mean±standard deviation).

Chain of JAK3 (P52333 whole entry): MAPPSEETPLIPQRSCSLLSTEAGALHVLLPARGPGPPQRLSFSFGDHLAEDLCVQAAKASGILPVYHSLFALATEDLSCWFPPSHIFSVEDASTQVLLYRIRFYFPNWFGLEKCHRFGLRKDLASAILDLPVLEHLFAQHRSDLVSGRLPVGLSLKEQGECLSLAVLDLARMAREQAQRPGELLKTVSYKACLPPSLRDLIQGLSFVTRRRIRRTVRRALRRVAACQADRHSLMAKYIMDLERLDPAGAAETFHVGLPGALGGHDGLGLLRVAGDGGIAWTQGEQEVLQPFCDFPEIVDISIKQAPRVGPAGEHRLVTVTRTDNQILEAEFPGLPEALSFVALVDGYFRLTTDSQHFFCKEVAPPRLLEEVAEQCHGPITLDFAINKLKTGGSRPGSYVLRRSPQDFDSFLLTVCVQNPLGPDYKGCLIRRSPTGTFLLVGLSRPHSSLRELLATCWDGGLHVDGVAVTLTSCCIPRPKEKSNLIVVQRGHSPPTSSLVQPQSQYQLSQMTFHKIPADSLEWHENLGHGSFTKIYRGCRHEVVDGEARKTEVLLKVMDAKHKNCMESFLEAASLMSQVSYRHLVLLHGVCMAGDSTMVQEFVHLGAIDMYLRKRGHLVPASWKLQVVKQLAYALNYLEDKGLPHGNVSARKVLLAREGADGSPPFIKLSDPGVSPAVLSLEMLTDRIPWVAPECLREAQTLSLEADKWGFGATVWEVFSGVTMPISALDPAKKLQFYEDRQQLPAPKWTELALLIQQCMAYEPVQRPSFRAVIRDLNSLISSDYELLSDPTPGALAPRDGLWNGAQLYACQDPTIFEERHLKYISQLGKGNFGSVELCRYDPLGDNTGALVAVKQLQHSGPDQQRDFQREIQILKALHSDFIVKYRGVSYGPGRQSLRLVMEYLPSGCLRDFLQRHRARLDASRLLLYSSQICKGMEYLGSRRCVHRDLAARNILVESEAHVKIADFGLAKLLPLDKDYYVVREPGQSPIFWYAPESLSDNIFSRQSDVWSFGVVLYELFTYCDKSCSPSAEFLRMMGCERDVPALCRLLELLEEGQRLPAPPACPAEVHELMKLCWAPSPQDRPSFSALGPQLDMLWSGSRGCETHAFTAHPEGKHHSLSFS
Chain of JAK1 (P23458 whole entry): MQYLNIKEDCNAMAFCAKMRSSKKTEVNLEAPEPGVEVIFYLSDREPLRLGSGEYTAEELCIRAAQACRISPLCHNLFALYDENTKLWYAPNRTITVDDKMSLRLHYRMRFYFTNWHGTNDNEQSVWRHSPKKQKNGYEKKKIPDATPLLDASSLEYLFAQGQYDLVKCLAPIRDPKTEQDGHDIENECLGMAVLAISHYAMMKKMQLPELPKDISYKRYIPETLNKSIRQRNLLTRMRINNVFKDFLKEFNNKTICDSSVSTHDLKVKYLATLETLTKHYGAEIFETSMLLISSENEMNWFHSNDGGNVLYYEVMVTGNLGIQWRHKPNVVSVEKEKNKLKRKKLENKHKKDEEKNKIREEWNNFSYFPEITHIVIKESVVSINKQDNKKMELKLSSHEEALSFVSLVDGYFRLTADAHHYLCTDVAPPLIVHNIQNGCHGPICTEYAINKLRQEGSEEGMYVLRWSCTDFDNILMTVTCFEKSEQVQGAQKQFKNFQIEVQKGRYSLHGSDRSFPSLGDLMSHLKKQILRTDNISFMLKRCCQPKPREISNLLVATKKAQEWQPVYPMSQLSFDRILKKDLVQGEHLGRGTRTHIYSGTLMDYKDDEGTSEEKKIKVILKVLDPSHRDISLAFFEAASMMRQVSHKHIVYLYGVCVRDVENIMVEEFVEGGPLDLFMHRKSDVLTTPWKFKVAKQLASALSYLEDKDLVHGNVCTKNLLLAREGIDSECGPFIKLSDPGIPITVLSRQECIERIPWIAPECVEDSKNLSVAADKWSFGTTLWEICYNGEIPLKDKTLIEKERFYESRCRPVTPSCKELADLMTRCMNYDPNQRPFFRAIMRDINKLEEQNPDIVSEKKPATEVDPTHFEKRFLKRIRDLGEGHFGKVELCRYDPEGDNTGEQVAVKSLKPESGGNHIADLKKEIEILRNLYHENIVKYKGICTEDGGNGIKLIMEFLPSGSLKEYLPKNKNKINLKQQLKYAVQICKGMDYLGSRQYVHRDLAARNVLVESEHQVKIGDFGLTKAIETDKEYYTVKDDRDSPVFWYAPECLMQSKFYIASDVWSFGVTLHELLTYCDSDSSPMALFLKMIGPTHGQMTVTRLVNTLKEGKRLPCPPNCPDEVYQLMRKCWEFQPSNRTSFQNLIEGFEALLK

CCS(=O)(=O)N1[C@@H]2CCC[C@H]1C[C@H](N(C)c1nc(Nc3cc(C)[nH]n3)cc(O[C@@H]3CCOC3)n1)C2 [Compound 18, N^2-((1R,3s,5S)-9-(ethylsulfonyl)-9-azabicyclo[3.3.1]nonan-3-yl)-N2-methyl-N4-(5-methyl-1H-pyrazol-3-yl)-6-(((R)-tetrahydrofuran-3-yl)oxy)pyrimidine-2,4-diamine]
Solubility at PH 7.4 (μmol) [1]: D (D represents a value between 10 and 50) | JAK 3 (pKi) [2]: B (B represents a pKi value between 9 and 10 (Ki between 1 nM and 0.1 nM)) | Solubility in PEG400 (mg/mL) [3]: B (B represents a value between 5 and 10) | Solubility in Diisopropyl adipate (mg/mL) [3]: B (B represents a value between 5 and 10) | Solubility in MCT (mg/mL) [3]: C (C represents a value below 5) | Solubility in Propylene glycol (mg/mL) [3]: B (B represents a value between 5 and 10) | JAK 1 (pKi) [4]: A (A represents a pKi value ≥10 (Ki≤0.1 nM))

Cc1cc(Nc2cc(C3CCCO3)nc(N(C)[C@@H]3C[C@H]4CCC[C@@H](C3)N4CC(=O)N3CCCC3)n2)n[nH]1 (stereo partly drawn) [Compound 16, 2-((1R,3s,5S)-3-(methyl(4-((5-methyl-1H-pyrazol-3-yl)amino)-6-(tetrahydrofuran-2-yl)pyrimidin-2-yl)amino)-9-azabicyclo[3.3.1]nonan-9-yl)-1-(pyrrolidin-1-yl)ethan-1-one]
Solubility at PH 7.4 (μmol) [1]: A (A represents a value above 500) | JAK 3 (pKi) [2]: C (C represents a pKi value between 8 and 9 (Ki between 10 nM and 1 nM)) | Solubility in PEG400 (mg/mL) [3]: C (C represents a value below 5) | Solubility in Diisopropyl adipate (mg/mL) [3]: C (C represents a value below 5) | Solubility in MCT (mg/mL) [3]: C (C represents a value below 5) | Solubility in Propylene glycol (mg/mL) [3]: C (C represents a value below 5) | JAK 1 (pKi) [4]: A (A represents a pKi value ≥10 (Ki≤0.1 nM))

CCC(=O)N1[C@@H]2CCC[C@H]1CC(N(C)c1nc(Nc3cc(C)[nH]n3)cc(OC3CCOC3)n1)C2 (stereo partly drawn) [Compound 46, 1-((1R,3s,5S)-3-(methyl(4-((5-methyl-1H-pyrazol-3-yl)amino)-6-((tetrahydrofuran-3-yl)oxy)pyrimidin-2-yl)amino)-9-azabicyclo[3.3.1]nonan-9-yl)propan-1-one]
Solubility at PH 7.4 (μmol) [1]: D (D represents a value between 10 and 50) | JAK 3 (pKi) [2]: B (B represents a pKi value between 9 and 10 (Ki between 1 nM and 0.1 nM)) | Tall-1 IL2 pSTAT5 (pIC50) [5]: A (A represents a pIC50 value ≥8.0) | JAK 1 (pKi) [4]: A (A represents a pKi value ≥10 (Ki≤0.1 nM))

CCS(=O)(=O)N1[C@@H]2CCC[C@H]1C[C@H](N(C)c1nc(Nc3cc(C)[nH]n3)cc(O[C@H]3CCOC3)n1)C2 [Compound 33, N^2-((1R,3s,5S)-9-(ethylsulfonyl)-9-azabicyclo[3.3.1]nonan-3-yl)-N2-methyl-N4-(5-methyl-1H-pyrazol-3-yl)-6-(((S)-tetrahydrofuran-3-yl)oxy)pyrimidine-2,4-diamine]
Solubility at PH 7.4 (μmol) [1]: D (D represents a value between 10 and 50) | JAK 3 (pKi) [2]: B (B represents a pKi value between 9 and 10 (Ki between 1 nM and 0.1 nM)) | Solubility in PEG400 (mg/mL) [3]: B (B represents a value between 5 and 10) | Solubility in Diisopropyl adipate (mg/mL) [3]: C (C represents a value below 5) | Solubility in MCT (mg/mL) [3]: C (C represents a value below 5) | Solubility in Propylene glycol (mg/mL) [3]: A (A represents a value above 10) | JAK 1 (pKi) [4]: A (A represents a pKi value ≥10 (Ki≤0.1 nM))

Cc1cc(Nc2cc(C3CCOC3)nc(N(C)[C@@H]3C[C@H]4CCC[C@@H](C3)N4C(=O)CC3CC3)n2)n[nH]1 (stereo partly drawn) [Compound 7, 2-cyclopropyl-1-((1R,3s,5S)-3-(methyl(4-((5-methyl-1H-pyrazol-3-yl)amino)-6-(tetrahydrofuran-3-yl)pyrimidin-2-yl)amino)-9-azabicyclo[3.3.1]nonan-9-yl)ethan-1-one]
Solubility at PH 7.4 (μmol) [1]: E (E represents a value below 10) | JAK 3 (pKi) [2]: C (C represents a pKi value between 8 and 9 (Ki between 10 nM and 1 nM)) | Tall-1 IL2 pSTAT5 (pIC50) [5]: A (A represents a pIC50 value ≥8.0) | JAK 1 (pKi) [4]: A (A represents a pKi value ≥10 (Ki≤0.1 nM))

CCS(=O)(=O)N1[C@@H]2CCC[C@H]1C[C@H](N(C)c1nc(Nc3cc(C)[nH]n3)c(F)c(C3CCOC3)n1)C2 (stereo partly drawn) [Compound 44, N2-((1R,3s,5S)-9-(ethylsulfonyl)-9-azabicyclo[3.3.1]nonan-3-yl)-5-fluoro-N2-methyl-N4-(5-methyl-1H-pyrazol-3-yl)-6-(tetrahydrofuran-3-yl)pyrimidine-2,4-diamine]
Solubility at PH 7.4 (μmol) [1]: E (E represents a value below 10) | JAK 3 (pKi) [2]: C (C represents a pKi value between 8 and 9 (Ki between 10 nM and 1 nM)) | JAK 1 (pKi) [4]: A (A represents a pKi value ≥10 (Ki≤0.1 nM))

Cc1cc(Nc2cc(OCC3COC3)nc(N(C)[C@@H]3C[C@H]4CCC[C@@H](C3)N4C(=O)CC3CC3)n2)n[nH]1 [Compound 40, 2-cyclopropyl-1-((1R,3s,5S)-3-(methyl(4-((5-methyl-1H-pyrazol-3-yl)amino)-6-(oxetan-3-ylmethoxy)pyrimidin-2-yl)amino)-9-azabicyclo[3.3.1]nonan-9-yl)ethan-1-one]
Solubility at PH 7.4 (μmol) [1]: D (D represents a value between 10 and 50) | JAK 3 (pKi) [2]: B (B represents a pKi value between 9 and 10 (Ki between 1 nM and 0.1 nM)) | Tall-1 IL2 pSTAT5 (pIC50) [5]: A (A represents a pIC50 value ≥8.0) | JAK 1 (pKi) [4]: A (A represents a pKi value ≥10 (Ki≤0.1 nM))

Cc1cc(Nc2cc(C3CCOCC3)nc(N(C)[C@@H]3C[C@H]4CCC[C@@H](C3)N4C(=O)CC3CC3)n2)n[nH]1 [Compound 4, 2-cyclopropyl-1-((1R,3s,5S)-3-(methyl(4-((5-methyl-1H-pyrazol-3-yl)amino)-6-(tetrahydro-2H-pyran-4-yl)pyrimidin-2-yl)amino)-9-azabicyclo[3.3.1]nonan-9-yl)ethan-1-one]
Solubility at PH 7.4 (μmol) [1]: E (E represents a value below 10) | JAK 3 (pKi) [2]: B (B represents a pKi value between 9 and 10 (Ki between 1 nM and 0.1 nM)) | Solubility in PEG400 (mg/mL) [3]: C (C represents a value below 5) | Solubility in Diisopropyl adipate (mg/mL) [3]: C (C represents a value below 5) | Solubility in MCT (mg/mL) [3]: C (C represents a value below 5) | Solubility in Propylene glycol (mg/mL) [3]: C (C represents a value below 5) | JAK 1 (pKi) [4]: A (A represents a pKi value ≥10 (Ki≤0.1 nM))
